Legend:
HepG2 cells = assay: Western blot of α-DNP antibody degradation in HepG2 cells treated with DNP-GN3; format: cell-based, human; conditions: anti-Alexa Fluor 488, FIG. 92A
Protocol: In addition, western blotting with an antibody directed to Alexa Fluor 488 was used to determine if endocytosed fluorescently labeled α-DNP antibodies are degraded in vitro. […] Signal arising from Alexa Fluor 488 in cell lysates was associated with only full-length antibody after two hours of incubation. After six hours, a lower molecular weight fluorophore-associated protein fragment between 37 and 50 kDa began to appear. An additional protein fragment with a molecular weight between 25 and 37 kDa was observed after 24 hours. […] Together with the above immunofluorescence studies showing the colocalization of α-DNP antibody-derived fluorescence with lysosomes, these studies support that α-DNP antibody degradation is mediated by lysosomal proteases. Lysosomal degradation is further consistent with a mechanism dependent on ASGPR.

PC3 cells = assay: Human prostate cancer PC3 tumor growth in mice; format: in vivo; conditions: control and comparator arms; FIG. 138
Protocol: The ability of MIF-GN3 to mediate the depletion of MIF in a therapeutically relevant disease model was investigated. […] An experiment was conducted to determine whether the bifunctional molecule MIF-GN3 can deplete sufficient human MIF from serum to slow PC3 tumor growth. Mice were injected with an aliquot of PC3 cells, and the size of the resultant tumors as well as the levels of human MIF in serum were monitored over five weeks. […] Five weeks after the initial PC3 cell injection, the first of the mice reached maximal tumor size ([…]) and was sacrificed (FIG. 138). […] The decrease in human MIF levels mediated by MIF-GN3 is consistent with a mechanism of action in which MIF-GN3 mediates the depletion and degradation of circulating MIF protein. While the α-MIF antibody would not necessarily be expected to decrease the levels of human MIF, it is possible that the antibody mediates MIF neutralization in a manner which masks its signal as determined by ELISA. Alternatively, the α-MIF antibody may mediate depletion or degradation of huMIF by some endocytic mechanism. Another possible explanation is that the α-MIF antibody decrease serum levels of active human MIF to such an extent at early time points that PC3 cells proliferate much more slowly, and therefore fewer cells are actively secreting human MIF.
Mice were sacrificed when their tumor volumes reached 1000 mm^3. […] At this same time point, less than 25% of the mice in any other arm had survived.

In the case of `CC(=O)NC1C(OCCOCCOCCNC(=O)CCOCC(COCCC(=O)NCCOCCOCCOC2OC(CO)C(O)C(O)C2NC(C)=O)(COCCC(=O)NCCOCCOCCOC2OC(CO)C(O)C(O)C2NC(C)=O)NC(=O)CNC(=O)COCCOCCOCCNc2ccc([N+](=O)[O-])cc2[N+](=O)[O-])OC(CO)C(O)C1O` (centres unmarked) [DNP-GN3], the “fluorophore accumulation in lysates of HepG2 cells” value (HepG2 cells) is reported as “accumulate fluorophore in a time- and DNP-GN3-dependent manner” and the PC3 tumor growth (PC3 cells) is reported as “not found to decrease tumor growth”.
